The source of these data is ChEMBL document CHEMBL1201862, “PubChem BioAssay data set” (2004).

Among the test systems are KM12; MDA-MB-435; MCF7; BT-549; PC-3; OVCAR-4; RPMI-8226; MDA-MB-231; SK-MEL-28; UACC-62; U-251; HL-60; SF-268; SF-295; SK-MEL-2; HOP-92; TK-10; DU-145; CCRF-CEM; A549.
Common to all, as to test: NCI anticancer screen, dose series, 48 h

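Step 1: Grow cells in 96-well plates. Step 2: Expose to compound for 48 hours at 5 concentrations. Step 3: Interpolate endpoints linearly; if unreached, use highest concentration. GI50 is the concentration that inhibits growth by half.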 The source made the active and inactive calls. No stated cut-off is given here; in the data, active = GI50 up to about 1.1 µM and inactive = higher.

With `CCn1cc(C(=O)O)c(=O)c2cc(F)c(N3CCN(CN4C(=O)/C(=N\c5ncc(Cc6cc(OC)c(OC)c(OC)c6)c(N)n5)c5cc(Cl)ccc54)CC3)cc21`, the GI50 in the test on KM12 was 50.2 µM (inactive); in the test on MDA-MB-435, 33.3 µM (inactive); with MCF7, 82 µM (inactive); in the test on BT-549, > 100 µM (inactive); in the test with PC-3, > 100 µM (inactive); in the test on OVCAR-4, > 100 µM (inactive). Further, the GI50 in the test with RPMI-8226 was 0.0399 µM (active); in the test on MDA-MB-231, > 100 µM (inactive); in the test with SK-MEL-28, > 100 µM (inactive); in the test on UACC-62, > 100 µM (inactive); in the test on U-251, 61.4 µM (inactive); in the test with HL-60, 20 µM (inactive). Further, the GI50 with SF-268 was > 100 µM (inactive); with SF-295, > 100 µM (inactive); in the test on SK-MEL-2 it was > 100 µM (inactive); with HOP-92, > 100 µM (inactive); with TK-10 it was 83 µM (inactive); in the test on DU-145, > 100 µM (inactive). In addition, the results for the GI50 in the test with CCRF-CEM and in the test on A549 were 91 µM (inactive) and > 100 µM (inactive), respectively.

Turning to `CSc1cc(N)ccc1/N=N/c1ccc(S(N)(=O)=O)cc1`, the GI50 with KM12 was 30.4 µM (inactive); with MDA-MB-435 it was 27.4 µM (inactive); in the test on MCF7, 37.3 µM (inactive); in the test on BT-549, 6.4 µM (inactive); in the test with PC-3, 32.7 µM (inactive); in the test on OVCAR-4, 27.5 µM (inactive). Besides, the GI50 in the test on RPMI-8226 is 16.4 µM (inactive); in the test with MDA-MB-231, 16.1 µM (inactive); with SK-MEL-28, 25.5 µM (inactive); with UACC-62, 15.9 µM (inactive); in the test with U-251 it was 26.9 µM (inactive); in the test on HL-60 it was 25.1 µM (inactive). Further, the GI50 with SF-268 is 37.8 µM (inactive); in the test with SF-295, 22.1 µM (inactive); in the test on SK-MEL-2, 24.2 µM (inactive); in the test with HOP-92 it was 21.8 µM (inactive); in the test on TK-10 it was 29.4 µM (inactive); in the test with DU-145, 34.9 µM (inactive). Further, the GI50 in the test with CCRF-CEM was 27.3 µM (inactive); in the test on A549, 22.1 µM (inactive).

Turning to `COC(=O)c1ccccc1CC1Cc2cc3c(cc2C1=O)CCC3` (stereo not given), the GI50 in the test on KM12 is 8.67 µM (inactive); in the test on MDA-MB-435 it was 1.95 µM (inactive); with MCF7, 14.6 µM (inactive); in the test with BT-549 it was 10.8 µM (inactive); in the test with PC-3, 11.1 µM (inactive); in the test on OVCAR-4, 19.2 µM (inactive). Besides, the GI50 is 10.5 µM (inactive) in the test with RPMI-8226; 8.85 µM (inactive) with MDA-MB-231; 17.8 µM (inactive) in the test with SK-MEL-28; 9.77 µM (inactive) in the test with UACC-62; 10.4 µM (inactive) in the test on U-251; 3.83 µM (inactive) in the test on HL-60. Besides, the GI50 with SF-268 was 29.6 µM (inactive); with SF-295, 14.6 µM (inactive); in the test with SK-MEL-2 it was 7.87 µM (inactive); in the test with HOP-92, 13.7 µM (inactive); with TK-10 it was 16.5 µM (inactive); in the test with DU-145, 27.7 µM (inactive). Besides, the GI50 was 6.53 µM (inactive) in the test on CCRF-CEM and 20.3 µM (inactive) in the test on A549.

Take `NC(Cc1cccnn1)C(=O)O` (stereo not given): the GI50 with KM12, in the test with MDA-MB-435, in the test with MCF7, in the test with BT-549, with PC-3 and in the test with OVCAR-4 was > 100 µM (inactive) each time. Besides, the GI50 with RPMI-8226, with MDA-MB-231, with SK-MEL-28, with UACC-62, with U-251 and in the test on HL-60 was > 100 µM (inactive) each time. Also, the GI50 in the test with SF-268, in the test with SF-295, with SK-MEL-2, in the test with HOP-92, with TK-10 and with DU-145 was > 100 µM (inactive) throughout. Besides, the GI50 in the test on CCRF-CEM and with A549 was > 100 µM (inactive) in each case.
